According to PubChem BioAssay (NCI):
“And” between values parts separate entries of the source, which are not always exact repeats. Identical values can stand only once.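 Results reflect a 48-hour exposure of cells in 96-well plates to compound at five concentrations. GI50: concentration for 50% inhibition of growth. TGI denotes the concentration required for complete inhibition of growth.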

What was measured:
Assay in all cases: inhibition of tumour cell growth, NCI panel, 48 h
786-0 renal = tested on: 786-0 renal
CAKI-1 renal = tested on: CAKI-1 renal
COLO 205 colon = tested on: COLO 205 colon
HL-60(TB) leukemia = tested on: HL-60(TB) leukemia
HT29 colon = tested on: HT29 colon
MDA-MB-231 breast = tested on: MDA-MB-231 breast
PC-3 prostate = tested on: PC-3 prostate
RPMI-8226 leukemia = tested on: RPMI-8226 leukemia
SR leukemia = tested on: SR leukemia
EKVX NSCLC = tested on: EKVX NSCLC

| Structure (SMILES) | GI50 (786-0 renal) [µM] | TGI (786-0 renal) | GI50 (CAKI-1 renal) [µM] | TGI (CAKI-1 renal) | GI50 (COLO 205 colon) [µM] | TGI (COLO 205 colon) | GI50 (HL-60(TB) leukemia) | TGI (HL-60(TB) leukemia) | GI50 (HT29 colon) [µM] | TGI (HT29 colon) | GI50 (MDA-MB-231 breast) | TGI (MDA-MB-231 breast) | GI50 (PC-3 prostate) [µM] | TGI (PC-3 prostate) | GI50 (RPMI-8226 leukemia) | TGI (RPMI-8226 leukemia) | GI50 (SR leukemia) | TGI (SR leukemia) | GI50 (EKVX NSCLC) [µM] | TGI (EKVX NSCLC) |
| --- | --- | --- | --- | --- | --- | --- | --- | --- | --- | --- | --- | --- | --- | --- | --- | --- | --- | --- | --- | --- |
| Nc1ncnc2c1ncn2C1SC(CO)C(O)C1O (stereo not given) | 16.5 | 37.3 µM | 29.5 | > 100 µM | 33.3 | > 100 µM | 30.3 µM | 76.2 µM | 10.7 | 42.4 µM | 10.9 µM | 34.8 µM | 3.72 | 33.1 µM | 44.1 µM | > 100 µM | 12.5 µM | 45.2 µM | – | – |
| COc1cc2nc(NC3CCC3)nc(NC3CCN(C(C)C)CC3)c2cc1OC | 1.85 | 3.91 µM | 1.59 | 3.17 µM | 1.88 | 3.81 µM | 2.06 µM | 4.05 µM | 1.75 | 3.97 µM | 1.84 µM | 3.79 µM | 3.51 | 20.7 µM | 1.71 µM | 4.06 µM | 0.631 µM | 3.33 µM | 4.65 | 23.4 µM |
| Cc1ccc(CNc2ccc(Cl)cc2NCc2ccc(C)c(O)c2)cc1O | 8.27 | 15.4 µM | 7.39 | 14 µM | 8.01 | 15.9 µM | 7.65 µM | 19.2 µM | 9.73 | 17.9 µM | 5.63 µM | 12.9 µM | 6.33 | 13.3 µM | 6.75 µM | 21.9 µM | 5.75 µM | 18.2 µM | 8.14 | 15.4 µM |
| CC[C@@]12CC(C(=O)OC)=C3Nc4ccccc4[C@@]34CCN(C[C@H]3O[C@H]31)[C@@H]24 | > 100 | > 100 µM | 36.9 | > 100 µM | 34.4 | > 100 µM | 24.7 µM | 81 µM | 29.2 | > 100 µM | 47.6 µM | > 100 µM | 52.7 | > 100 µM | 23.5 µM | > 100 µM | 24 µM | > 100 µM | 40.2 | > 100 µM |
| O=C(/C=C/c1ccccc1)c1ccccn1 | – | 24.7 µM and 40.9 µM | – | 33.2 µM and 64.4 µM | – | 32.9 µM and 45.7 µM | 2.55 µM and 16.4 µM | 53.6 µM and 84.8 µM | – | 28.9 µM and 48.3 µM | 15.6 µM and 35.8 µM | 30.7 µM and > 100 µM | – | 47.3 µM and 41.3 µM | 5.71 µM and 15.9 µM | 31.6 µM and 81.1 µM | 1.96 µM and 7.94 µM | 7.7 µM and 54.6 µM | – | 45.5 µM and 41 µM |
| CC1(C)CC[C@]2(C(=O)O)CC[C@]3(C)C(=CC[C@@H]4[C@@]5(C)C/C(=C/c6cccnc6)[C@H](O)C(C)(C)[C@@H]5CC[C@]43C)[C@@H]2C1 | 11.2 | > 100 µM | 10.2 | > 100 µM | 9.71 | 29.6 µM | 2.12 µM | 5.94 µM | 8.78 | 42.1 µM | 14.9 µM | 57.3 µM | 2.66 | 72.4 µM | 3.02 µM | 18.8 µM | 13.2 µM | > 100 µM | 6.02 | 56.6 µM |
| CCn1nc(C#Cc2c(C)ccc3c(Nc4ccc(Cl)cc4)nccc23)c2c(N)ncnc21 | 3.66 | > 100 µM | 4.78 | > 100 µM | 2.36 | > 100 µM | 0.598 µM | > 100 µM | 2.32 | > 100 µM | 1.89 µM | 27.8 µM | 3.03 | > 100 µM | 3.77 µM | > 100 µM | 1.01 µM | > 100 µM | 7.4 | > 100 µM |
| N=C(N)c1ccc(-c2ccc(-c3cccs3)s2)cc1F | 1.14 | 2.63 µM | 1.37 | 2.82 µM | 0.202 | 0.39 µM | 1.79 µM | 3.83 µM | – | – | 1.16 µM | 2.93 µM | 1.48 | 3.03 µM | 0.288 µM | 0.951 µM | 0.341 µM | 1.07 µM | – | – |
| O=C(c1ccco1)c1c(C(F)(F)F)n([O-])c2cc(Cl)c(Cl)cc2[n+]1=O | 0.241 | 0.456 µM | 0.434 | 1.24 µM | 1.82 | 18.3 µM | 0.0812 µM | 0.18 µM | 1.22 | 17.3 µM | 0.843 µM | 1.77 µM | 0.23 | 1.01 µM | 0.196 µM | 3.29 µM | 0.0497 µM | 50 µM | 0.887 | 1.86 µM |
| NC1=Nc2cc(OCCCCN3Cc4ccccc4C3)c(OCC3CC3)cc2C12CCCC2 | 1.54 | 3.03 µM | 2.1 | 6.5 µM | 1.45 | 3.11 µM | 1.73 µM | 3.55 µM | 1.26 | 3.13 µM | 1.55 µM | 3.02 µM | 1.69 | 7.81 µM | 1.53 µM | 4.02 µM | 1.61 µM | 4.48 µM | 2.77 | 14.5 µM |
| CS(=O)c1cc(=O)c2ccccc2s1 (stereo not given) | – | 7.41 µM | – | 6.2 µM | – | 4.65 µM | – | 4.63 µM | – | 12.9 µM | – | 32.8 µM | – | 28.9 µM | – | 9.08 µM | – | 4.67 µM | – | 20.5 µM |
| O=c1[nH]c2c(ccc3cnccc32)c2c1CCC2 | 0.344 | 29.9 µM | 0.308 | > 100 µM | 0.241 | 0.677 µM | 0.272 µM | – | 0.447 | > 100 µM | 0.361 µM | > 100 µM | 0.288 | – | 0.244 µM | 1.18 µM | – | > 100 µM | 1.47 | > 100 µM |
| COc1ccc(-c2cc(-c3ccc(Cl)cc3)c(C#N)c(=O)n2CCCCCC(=O)Nc2ccccc2N)cc1 | 4.49 | > 100 µM | 2.04 | 5.97 µM | 3.15 | 33.2 µM | 2.6 µM | 7.12 µM | 3.56 | > 100 µM | 7.12 µM | > 100 µM | 3.05 | 31 µM | 1.43 µM | 7.28 µM | 2.02 µM | > 100 µM | 3.44 | 61.1 µM |
